Measured values: patent publication US10544130B2, “Metallo-beta-lactamase inhibitors” (priority 2015, dated 2020)

Test system: Pseudomonas aeruginosa PAO1 MB9798 (efflux+, IMP-1)
Details: ratio MITC95 PA 9798/MITC95 PA 9799; imipenem at 2 μg/mL
Method in brief: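 Isogenic PAO1 pair (efflux+ MB9798, efflux− MB9799, both IMP-1) tested by microbroth MIC with fixed imipenem and/or ceftazidime, usually at CLSI breakpoint, plus fixed class A/C inhibitor against AmpC. MBL inhibitor titrated; concentration restoring susceptibility recorded and fold difference between strains taken as efflux extent.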

| SMILES | Efflux ratio |
| --- | --- |
| NCCOCCNS(=O)(=O)c1ccc(-c2cccc3sc(N)nc23)c(-c2nnn[nH]2)c1S(N)(=O)=O [Example 203, 4-(2-aminobenzo[d]thiazol-4-yl)-N^1-(2-(2-aminoethoxy)ethyl)-3-(1H-tetrazol-5-yl)benzene-1,2-disulfonamide] | 0.50 |
| NCCNC(=O)c1cccc(-c2ccc(S(=O)(=O)NCCN)c(S(N)(=O)=O)c2-c2nn[nH]n2)c1N [Example 204, 2-amino-N-(2-aminoethyl)-4′-(N-(2-aminoethyl)sulfamoyl)-5′-sulfamoyl-6′-(2H-tetrazol-5-yl)biphenyl-3-carboxamide] | 1.00 |
| Nc1nc2c(-c3ccc(S(=O)(=O)N4CC[C@@H](F)[C@H](N)C4)c(S(N)(=O)=O)c3-c3nn[nH]n3)cccc2[nH]1 [Example 205, 3-(2-amino-1H-benzo[d]imidazol-4-yl)-6-(((3R,4R)-3-amino-4-fluoropiperidin-1-yl)sulfonyl)-2-(2H-tetrazol-5-yl)benzenesulfonamide] | 8.00 |
| Nc1nc2c(-c3ccc(S(=O)(=O)NCC4COCCN4)c(S(N)(=O)=O)c3-c3nn[nH]n3)cccc2[nH]1 (stereo not shown) [Example 206, 4-(2-amino-1H-benzo[d]imidazol-4-yl)-N1-(morpholin-3-ylmethyl)-3-(2H-tetrazol-5-yl)benzene-1,2-disulfonamide] | 2.00 |
| Nc1nc2c(-c3ccc(S(=O)(=O)NCC4CCN4)c(S(N)(=O)=O)c3-c3nn[nH]n3)cccc2[nH]1 (stereo not shown) [Example 207, 4-(2-amino-1H-benzo[d]imidazol-4-yl)-N1-(azetidin-2-ylmethyl)-3-(2H-tetrazol-5-yl)benzene-1,2-disulfonamide] | 2.00 |
| C[C@H](N)CC(=O)NS(=O)(=O)c1ccc(-c2cccc3[nH]c(N)nc23)c(-c2nn[nH]n2)c1S(N)(=O)=O [Example 208, (S)-3-amino-N-((4-(2-amino-1H-benzo[d]imidazol-4-yl)-2-sulfamoyl-3-(2H-tetrazol-5-yl)phenyl)sulfonyl)butanamide] | 1.00 |
| NCC(CN)NS(=O)(=O)c1ccc(-c2cccnc2N)c(-c2nn[nH]n2)c1S(N)(=O)=O [Example 210, 4-(2-aminopyridin-3-yl)-N1-(1,3-diaminopropan-2-yl)-3-(2H-tetrazol-5-yl)benzene-1,2-disulfonamide] | 2.00 |
| CC(C)(CN)NS(=O)(=O)c1ccc(-c2cccnc2N)c(-c2nn[nH]n2)c1S(N)(=O)=O [Example 211, N1-(1-amino-2-methylpropan-2-yl)-4-(2-aminopyridin-3-yl)-3-(2H-tetrazol-5-yl)benzene-1,2-disulfonamide] | 4.00 |
| C[C@H](CN)NS(=O)(=O)c1ccc(-c2cccnc2N)c(-c2nn[nH]n2)c1S(N)(=O)=O [Example 212, (R)-N1-(1-aminopropan-2-yl)-4-(2-aminopyridin-3-yl)-3-(2H-tetrazol-5-yl)benzene-1,2-disulfonamide] | 1.00 |
| NC[C@H](N)CNS(=O)(=O)c1ccc(-c2cccnc2N)c(-c2nn[nH]n2)c1S(N)(=O)=O [Example 213, (S)-4-(2-aminopyridin-3-yl)-N1-(2,3-diaminopropyl)-3-(2H-tetrazol-5-yl)benzene-1,2-disulfonamide] | 2.00 |
| Nc1ncccc1-c1ccc(S(=O)(=O)NC[C@@H](N)CO)c(S(N)(=O)=O)c1-c1nn[nH]n1 [Example 214, (R)-N1-(2-amino-3-hydroxypropyl)-4-(2-aminopyridin-3-yl)-3-(2H-tetrazol-5-yl)benzene-1,2-disulfonamide] | 8.00 |
| NC[C@H](CO)NS(=O)(=O)c1ccc(-c2cccnc2N)c(-c2nn[nH]n2)c1S(N)(=O)=O [Example 215, (R)-N1-(1-amino-3-hydroxypropan-2-yl)-4-(2-aminopyridin-3-yl)-3-(2H-tetrazol-5-yl)benzene-1,2-disulfonamide] | 1.00 |
| Nc1ncccc1-c1ccc(S(=O)(=O)N[C@H]2C[C@@H]2N)c(S(N)(=O)=O)c1-c1nn[nH]n1 [Example 216, N1-((1S)-2-aminocyclopropyl)-4-(2-aminopyridin-3-yl)-3-(2H-tetrazol-5-yl)benzene-1,2-disulfonamide] | 4.00 |
| Nc1cncc(-c2ccc(S(=O)(=O)N[C@@H]3CCNC3)c(S(N)(=O)=O)c2-c2nn[nH]n2)c1 [Example 219, (R)-4-(5-aminopyridin-3-yl)-N1-(pyrrolidin-3-yl)-3-(2H-tetrazol-5-yl)benzene-1,2-disulfonamide] | 1.00 |
| NS(=O)(=O)c1c(S(=O)(=O)N[C@@H]2CCNC2)ccc(-c2cccnc2N2CCNCC2)c1-c1nn[nH]n1 [Example 220, (R)-4-(2-(piperazin-1-yl)pyridin-3-yl)-N1-(pyrrolidin-3-yl)-3-(2H-tetrazol-5-yl)benzene-1,2-disulfonamide] | 4.00 |
| C[C@H](CN)NS(=O)(=O)c1ccc(-c2cncc(N)c2)c(-c2nn[nH]n2)c1S(N)(=O)=O [Example 221, (R)—N1-(1-aminopropan-2-yl)-4-(5-aminopyridin-3-yl)-3-(2H-tetrazol-5-yl)benzene-1,2-disulfonamide] | 1.00 |

| SMILES | Efflux ratio |
| --- | --- |
| NC[C@H](O)CNS(=O)(=O)c1ccc(-c2ccncc2N)c(-c2nn[nH]n2)c1S(N)(=O)=O [Example 222, (S)—N1-(3-amino-2-hydroxypropyl)-4-(3-aminopyridin-4-yl)-3-(2H-tetrazol-5-yl)benzene-1,2-disulfonamide] | 1.00 |
| NC[C@H](N)CNS(=O)(=O)c1ccc(-c2cnccc2N)c(-c2nn[nH]n2)c1S(N)(=O)=O [Example 223, (S)-4-(4-aminopyridin-3-yl)-N1-(2,3-diaminopropyl)-3-(2H-tetrazol-5-yl)benzene-1,2-disulfonamide] | 2.00 |
| NS(=O)(=O)c1c(S(=O)(=O)N[C@@H]2CCNC2)ccc(-c2cccc(-c3nc[nH]n3)c2)c1-c1nn[nH]n1 [Example 225, (R)-N4-(pyrrolidin-3-yl)-2-(2H-tetrazol-5-yl)-3′-(1H-1,2,4-triazol-3-yl)-[1,1′-biphenyl]-3,4-disulfonamide] | 1.00 |
| N[C@@H](CO)CNS(=O)(=O)c1ccc(-c2cccc(C3N=CN=N3)c2)c(-c2nn[nH]n2)c1S(N)(=O)=O (stereo partly drawn) [Example 226, N4-((R)-2-amino-3-hydroxypropyl)-2-(2H-tetrazol-5-yl)-3′-(3H-1,2,4-triazol-3-yl)-[1,1′-biphenyl]-3,4-disulfonamide] | 2.00 |
| NCC(CN)NS(=O)(=O)c1ccc(-c2cccc(-c3nc[nH]n3)c2)c(-c2nn[nH]n2)c1S(N)(=O)=O [Example 227, N4-(1,3-diaminopropan-2-yl)-2-(2H-tetrazol-5-yl)-3′-(1H-1,2,4-triazol-3-yl)-[1,1′-biphenyl]-3,4-disulfonamide] | 1.00 |
| NCCNS(=O)(=O)c1ccc(-c2cccc(-c3n[nH]c(N)n3)c2)c(-c2nn[nH]n2)c1S(N)(=O)=O [Example 228, 3′-(5-amino-1H-1,2,4-triazol-3-yl)-N4-(2-aminoethyl)-2-(2H-tetrazol-5-yl)-[1,1′-biphenyl]-3,4-disulfonamide] | 1.00 |
| NCC(CN)NS(=O)(=O)c1ccc(-c2cccc(C3N=NC(N)=N3)c2)c(-c2nn[nH]n2)c1S(N)(=O)=O (stereo not shown) [Example 229, 3′-(5-amino-3H-1,2,4-triazol-3-yl)-N4-(1,3-diaminopropan-2-yl)-2-(2H-tetrazol-5-yl)-[1,1′-biphenyl]-3,4-disulfonamide] | 0.50 |
| NC[C@@H](N)CNS(=O)(=O)c1ccc(-c2cccc(-c3n[nH]c(N)n3)c2)c(-c2nn[nH]n2)c1S(N)(=O)=O [Example 230, (R)-3′-(5-amino-1H-1,2,4-triazol-3-yl)-N4-(2,3-diaminopropyl)-2-(2H-tetrazol-5-yl)-[1,1′-biphenyl]-3,4-disulfonamide] | 1.00 |
| Nc1nc(-c2cccc(-c3ccc(S(=O)(=O)N[C@@H]4CCNC4)c(S(N)(=O)=O)c3-c3nn[nH]n3)c2)n[nH]1 [Example 231, (R)-3′-(5-amino-1H-1,2,4-triazol-3-yl)-N4-(pyrrolidin-3-yl)-2-(2H-tetrazol-5-yl)-[1,1′-biphenyl]-3,4-disulfonamide] | 1.00 |
| CN1CC[C@@H](NS(=O)(=O)c2ccc(-c3cccc4[nH]c(N)nc34)c(-c3nn[nH]n3)c2S(N)(=O)=O)C1 [Example 232, (R)-4-(2-amino-1H-benzo[d]imidazol-4-yl)-N^1-(1-methylpyrrolidin-3-yl)-3-(2H-tetrazol-5-yl)benzene-1,2-disulfonamide] | 2.00 |
| C[N+]1(C)CC[C@@H](NS(=O)(=O)c2ccc(-c3cccc4[nH]c(N)nc34)c(-c3nn[nH]n3)c2S(N)(=O)=O)C1.[Cl-] [Example 233, (R)-3-((4-(2-amino-1H-benzo[d]imidazol-4-yl)-2-sulfamoyl-3-(2H-tetrazol-5-yl)phenyl)sulfonamido)-1,1-dimethylpyrrolidin-1-ium chloride] | 1.00 |
| Nc1nc2c(-c3ccc(S(=O)(=O)N[C@@H]4CCNC4)c(S(N)(=O)=O)c3-c3nn[nH]n3)cc(I)cc2[nH]1 [Example 234, (R)-4-(2-amino-6-iodo-1H-benzo[d]imidazol-4-yl)-N^1-(pyrrolidin-3-yl)-3-(2H-tetrazol-5-yl)benzene-1,2-disulfonamide] | 1.00 |
| NS(=O)(=O)c1c(S(=O)(=O)N[C@@H]2CCNC2)ccc(-c2cccc3[nH]nnc23)c1-c1nn[nH]n1 [Example 235, (R)-4-(1H-benzo[d][1,2,3]triazol-4-yl)-N^1-(pyrrolidin-3-yl)-3-(2H-tetrazol-5-yl)benzene-1,2-disulfonamide] | 0.50 |
| NCCNS(=O)(=O)c1ccc(-c2cccc3[nH]nnc23)c(-c2nn[nH]n2)c1S(N)(=O)=O [Example 236, N^1-(2-aminoethyl)-4-(1H-benzo[d][1,2,3]triazol-4-yl)-3-(2H-tetrazol-5-yl)benzene-1,2-disulfonamide] | 1.00 |
| C[C@H](CN)NS(=O)(=O)c1ccc(-c2cccc3[nH]nnc23)c(-c2nn[nH]n2)c1S(N)(=O)=O [Example 237, (R)-N^1-(1-aminopropan-2-yl)-4-(1H-benzo[d][1,2,3]triazol-4-yl)-3-(2H-tetrazol-5-yl)benzene-1,2-disulfonamide] | 0.50 |
